Assay results published in US20060281071A1, “Stearoyl-CoA desaturase assay” (priority 2005, published 2006).
Values joined by “and” are separate entries in the source; they are usually repeats but may differ in a detail not shown here. Identical values can stand only once. Like-named read-outs stand apart in the source and are kept apart here.

How the values were obtained:
hSCD5 = molecular target: T1, hSCD5 (Homo sapiens, UniProt Q86SK9); test: Conversion of saturated fatty acids to Δ9 monounsaturated fatty acids in ole1 yeast L8-14C expressing hSCD5 (GLC); assay type: cell-based; parameters: Cloning of the full-length human and mouse SCD cDNAs: The full coding region of human SCDs; expressed in transfected cells; host or cells: Saccharomyces cerevisiae L8-14C (ole1 disruptant), vector p426GPD; conditions: for % conversion of fatty acid to Δ9 monounsaturated fatty acid: endogenous fatty acid, L8-14C transformant, YPD lacking unsaturated fatty acids, 3 days
T1 sequence (Q86SK9 1-330): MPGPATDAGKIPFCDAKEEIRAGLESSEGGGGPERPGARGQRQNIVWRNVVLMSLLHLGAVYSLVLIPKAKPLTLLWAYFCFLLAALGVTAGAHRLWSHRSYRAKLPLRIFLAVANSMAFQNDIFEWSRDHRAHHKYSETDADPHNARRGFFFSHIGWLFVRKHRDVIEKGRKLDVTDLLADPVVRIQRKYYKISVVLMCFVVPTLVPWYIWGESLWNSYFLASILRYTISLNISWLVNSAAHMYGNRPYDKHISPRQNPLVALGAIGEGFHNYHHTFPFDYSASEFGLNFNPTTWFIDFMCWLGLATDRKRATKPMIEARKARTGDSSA
Source text: (§1) Functional Analysis: The p426GPD constructs harboring either human or mouse SCDs were transformed into Saccharomyces cerevisiae strain L8-14C (provided by Professor Charles Martin, Division of Life Sciences, Department of Cell Biology and Neuroscience, Rutgers University, Nelson Laboratories), which contains a disruption of the yeast Δ9-desaturase gene ole1 and requires unsaturated fatty acids for growth (Stukey, J. E. et al. (1990) J Biol Chem 265, 20144-20149), by using a Lithium acetate standard methods (Elble, R. (1992) Biotechniques 13, 18-20). The transformed yeast cells were plated onto a synthetic dextrose medium containing 1% tergitol NP-40, 0.5 mM oleic acid, and 0.5 mM palmitoleic acid but lacking uracil. To test the genetic complementation of the mutant yeast strain, transformed yeast cells were plated onto YPD (Yeast Extract/Peptone/Dextrose) medium lacking unsaturated fatty acids. Plates were incubated at 30° C. for 3 days.
(§2) Fatty acid analysis: Yeast cells were grown in liquid YPD medium lacking unsaturated fatty acids for 3 days. Cells were pelleted and washed twice with water, followed by suspension in 0.5 ml of 2M NaOH in methanol. The mixture was then heated to 80° C. for 1 h and acidified with formic acid. Fatty acids were extracted according to Bligh & Dyer's method and trans-methylated with 1 ml of 14% BF3 in methanol (Sigma). The resulting fatty acid methyl esters were extracted with hexane and analyzed by gas-liquid chromatography (GLC) (Miyazaki, M. et al. (2001) J Biol Chem 276, 39455-39461; and Elble, R. (1992) Biotechniques 13, 18-20). The double bond positions of the monounsaturated fatty acid pyrrolidide derivatives were analyzed by tandem GC-MS as described in Miyazaki, M. et al. (2002) J Lipid Res 43, 2146-2154, incorporated by reference in its entirety. Exogenous saturated fatty acids (0.2 mM) were added into YPD in presence of 1% Tergitol NP-40 (Sigma).

mSCD3 = molecular target: T2, mSCD3 (Mus musculus, UniProt Q99PL7, V119A); test: Conversion of saturated fatty acids to Δ9 monounsaturated fatty acids in ole1 yeast L8-14C expressing mSCD3 (GLC); assay type: cell-based; parameters: Cloning of the full-length human and mouse SCD cDNAs: The full coding region of human SCDs; expressed in transfected cells; host or cells: Saccharomyces cerevisiae L8-14C (ole1 disruptant), vector p426GPD
T2 sequence (Q99PL7 1-359 V119A): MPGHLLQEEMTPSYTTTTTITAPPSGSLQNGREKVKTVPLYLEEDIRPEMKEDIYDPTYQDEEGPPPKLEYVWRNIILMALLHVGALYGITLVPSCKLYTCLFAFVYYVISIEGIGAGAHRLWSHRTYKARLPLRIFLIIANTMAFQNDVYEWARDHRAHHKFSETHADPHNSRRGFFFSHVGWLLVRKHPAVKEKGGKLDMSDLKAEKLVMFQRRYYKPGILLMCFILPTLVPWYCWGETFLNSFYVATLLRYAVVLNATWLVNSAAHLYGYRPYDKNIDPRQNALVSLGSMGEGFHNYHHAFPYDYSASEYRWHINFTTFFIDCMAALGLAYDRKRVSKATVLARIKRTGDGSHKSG

mSCD1 = molecular target: T3, mSCD1 (Mus musculus, UniProt P13516); test: Conversion of saturated fatty acids to Δ9 monounsaturated fatty acids in ole1 yeast L8-14C expressing mSCD1 (GLC); assay type: cell-based; parameters: Cloning of the full-length human and mouse SCD cDNAs: The full coding region of human SCDs; expressed in transfected cells; host or cells: Saccharomyces cerevisiae L8-14C (ole1 disruptant), vector p426GPD; conditions: for conversion of exogenous saturated fatty acid to Δ9 monounsaturated fatty acid: exogenous fatty acid 0.2 mM, 1% tergitol NP-40, yeast cultured 2 days (FIG. 2); for % conversion of fatty acid to Δ9 monounsaturated fatty acid: endogenous fatty acid, L8-14C transformant, YPD lacking unsaturated fatty acids, 3 days
T3 sequence (P13516 1-355): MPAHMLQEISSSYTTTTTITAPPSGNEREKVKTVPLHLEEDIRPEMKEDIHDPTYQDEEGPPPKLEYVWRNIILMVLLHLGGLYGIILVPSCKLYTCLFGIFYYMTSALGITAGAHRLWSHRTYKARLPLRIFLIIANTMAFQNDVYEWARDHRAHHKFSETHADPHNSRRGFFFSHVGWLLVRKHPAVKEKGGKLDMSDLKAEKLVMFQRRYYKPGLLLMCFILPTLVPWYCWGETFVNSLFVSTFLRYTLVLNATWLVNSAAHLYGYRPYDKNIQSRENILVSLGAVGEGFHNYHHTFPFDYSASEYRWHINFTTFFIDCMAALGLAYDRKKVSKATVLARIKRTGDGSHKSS

hSCD1 = molecular target: T4, hSCD1 (Homo sapiens, UniProt O00767); test: Conversion of saturated fatty acids to Δ9 monounsaturated fatty acids in ole1 yeast L8-14C expressing hSCD1 (GLC); assay type: cell-based; parameters: Cloning of the full-length human and mouse SCD cDNAs: The full coding region of human SCDs; expressed in transfected cells; host or cells: Saccharomyces cerevisiae L8-14C (ole1 disruptant), vector p426GPD; conditions: for conversion of exogenous saturated fatty acid to Δ9 monounsaturated fatty acid: exogenous fatty acid 0.2 mM, 1% tergitol NP-40, yeast cultured 2 days (FIG. 2); for % conversion of fatty acid to Δ9 monounsaturated fatty acid: endogenous fatty acid, L8-14C transformant, YPD lacking unsaturated fatty acids, 3 days
T4 sequence (O00767 1-359): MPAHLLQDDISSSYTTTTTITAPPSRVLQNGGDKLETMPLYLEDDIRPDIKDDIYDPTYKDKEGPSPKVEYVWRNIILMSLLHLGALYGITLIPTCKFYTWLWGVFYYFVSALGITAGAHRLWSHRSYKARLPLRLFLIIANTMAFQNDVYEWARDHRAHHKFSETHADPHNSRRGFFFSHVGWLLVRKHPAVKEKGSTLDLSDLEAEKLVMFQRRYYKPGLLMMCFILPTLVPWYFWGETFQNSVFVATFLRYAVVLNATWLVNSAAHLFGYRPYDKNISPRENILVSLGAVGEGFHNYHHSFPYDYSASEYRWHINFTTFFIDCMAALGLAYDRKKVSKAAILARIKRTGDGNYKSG

mSCD2 = molecular target: T5, mSCD2 (Mus musculus, UniProt P13011); test: Conversion of saturated fatty acids to Δ9 monounsaturated fatty acids in ole1 yeast L8-14C expressing mSCD2 (GLC); assay type: cell-based; parameters: Cloning of the full-length human and mouse SCD cDNAs: The full coding region of human SCDs; expressed in transfected cells; host or cells: Saccharomyces cerevisiae L8-14C (ole1 disruptant), vector p426GPD; conditions: for conversion of exogenous saturated fatty acid to Δ9 monounsaturated fatty acid: exogenous fatty acid 0.2 mM, 1% tergitol NP-40, yeast cultured 2 days (FIG. 2); for % conversion of fatty acid to Δ9 monounsaturated fatty acid: endogenous fatty acid, L8-14C transformant, YPD lacking unsaturated fatty acids, 3 days
T5 sequence (P13011 1-358): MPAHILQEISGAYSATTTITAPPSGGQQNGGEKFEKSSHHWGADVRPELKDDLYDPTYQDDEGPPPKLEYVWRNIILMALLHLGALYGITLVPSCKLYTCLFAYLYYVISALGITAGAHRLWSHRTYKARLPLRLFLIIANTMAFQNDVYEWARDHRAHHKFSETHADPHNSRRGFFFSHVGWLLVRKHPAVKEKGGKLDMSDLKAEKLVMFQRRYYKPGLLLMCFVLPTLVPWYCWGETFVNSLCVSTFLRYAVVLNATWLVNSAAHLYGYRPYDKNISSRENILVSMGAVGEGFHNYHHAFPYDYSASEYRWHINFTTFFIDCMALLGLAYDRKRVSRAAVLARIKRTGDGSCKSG

mSCD4 = test: Conversion of saturated fatty acids to Δ9 monounsaturated fatty acids in ole1 yeast L8-14C expressing mSCD4 (GLC); assay type: cell-based, mouse; conditions: for conversion of exogenous saturated fatty acid to Δ9 monounsaturated fatty acid: exogenous fatty acid 0.2 mM, 1% tergitol NP-40, yeast cultured 2 days (FIG. 2); for % conversion of fatty acid to Δ9 monounsaturated fatty acid: endogenous fatty acid, L8-14C transformant, YPD lacking unsaturated fatty acids, 3 days
Source text: as §1
as §2, with “Cells” for “Fatty acid analysis: Yeast cells were grown in liquid YPD medium lacking unsaturated fatty acids for 3 days. Cells”

[1] = exogenous fatty acid 0.2 mM, 1% tergitol NP-40, yeast cultured 2 days (FIG. 2)
[2] = yeast transformant, endogenous fatty acids

Structure (SMILES)	conversion of exogenous saturated fatty acid to Δ9 monounsaturated fatty acid (mSCD1)	conversion of exogenous saturated fatty acid to Δ9 monounsaturated fatty acid (hSCD5; [1])	conversion of exogenous saturated fatty acid to Δ9 monounsaturated fatty acid (hSCD1)	conversion of exogenous saturated fatty acid to Δ9 monounsaturated fatty acid (mSCD2)	conversion of exogenous saturated fatty acid to Δ9 monounsaturated fatty acid (mSCD4)	also measured
CCCCCCCCCCCC(=O)O [12:0, lauric acid]	–	–	–	–	–	conversion of exogenous saturated fatty acid to Δ9 monounsaturated fatty acid (hSCD5): did not desaturate; conversion of exogenous saturated fatty acid to Δ9 monounsaturated fatty acid (mSCD3): 14%
CCCCCCCCCCCCC(=O)O [13:0, tridecanoic acid]	13%	did not desaturate	9%	14%	–	–
CCCCCCCCCCCCCC(=O)O [14:0, myristic acid]	11%	less than 5%	18%	14%	2.9%	–
CCCCCCCCCCCCCCCC(=O)O [16:0]	–	–	–	–	–	% conversion of fatty acid to Δ9 monounsaturated fatty acid (mSCD1): 36.4%; % conversion of fatty acid to Δ9 monounsaturated fatty acid (mSCD4): 9.7%; % conversion of fatty acid to Δ9 monounsaturated fatty acid (hSCD5): 19.9%; % conversion of fatty acid to Δ9 monounsaturated fatty acid (hSCD1): 43.8%; % conversion of fatty acid to Δ9 monounsaturated fatty acid (mSCD2): 51.4%
CCCCCCCCCCCCCCCCC(=O)O [17:0, heptadecanoic acid]	43%	31%	35%	31%	5.7%	–
CCCCCCCCCCCCCCCCCC(=O)O [18:0]	–	–	–	–	–	% conversion of fatty acid to Δ9 monounsaturated fatty acid (mSCD1): 85% and 84.8%; % conversion of fatty acid to Δ9 monounsaturated fatty acid (mSCD4): 16.8%; % conversion of fatty acid to Δ9 monounsaturated fatty acid (hSCD5): 86.6%; conversion of 18:0 to 18:1Δ9 relative to that of 16:0 (hSCD5; [2]): more than 4 fold; % conversion of fatty acid to Δ9 monounsaturated fatty acid (hSCD1): 75.0%; conversion towards 18:0 relative to 16:0 (hSCD1; [2]): 1.7 fold; % conversion of fatty acid to Δ9 monounsaturated fatty acid (mSCD2): 77% and 77.3%
CCCCCCCCCCCCCCCCCCCC(=O)O [C20:0, eicosanoic acid]	None of Δ9-desaturase was able to utilize	None of Δ9-desaturase was able to utilize	None of Δ9-desaturase was able to utilize	None of Δ9-desaturase was able to utilize	None of Δ9-desaturase was able to utilize	–
